The values that follow are results of earlier work, collected in patent publication US20250255804A1, “LIQUID INJECTABLE COMPOSITIONS OF LURBINECTEDIN” (DR. REDDY’S LABORATORIES LIMITED, priority 2024, published 2025).

The conditions of the data set: solubility increases at acidic pH.

As to `COc1ccc2[nH]c3c(c2c1)CCN[C@]31CS[C@@H]2c3c(OC(C)=O)c(C)c4c(c3[C@H](COC1=O)N1[C@@H]2[C@H]2c3c(cc(C)c(OC)c3O)C[C@@H]([C@@H]1O)N2C)OCO4` [lurbinectedin, Lurbinectedin], the solubility in water entry is “insoluble or practically insoluble in water”.
